In patent US20030069194A1, “Inhibition of viral replication by targeting RNA-DNA complexes” (priority 2001, published 2003):
Where a name gives a salt, the structure may show the parent alone.

Columns and labels:
[1] = system: 18C-18R duplex (RNase H substrate of HIV-1 RT); assay: RT-induced RNase H cleavage of the 18C-18R duplex (gel assay); format: biochemical; settings: for hierarchy of the extent of inhibition of RT-induced cleavage: 18C-18R duplex, aminoglycosides 312.5 μM, FIG. 1b, 1d; for inhibition of RT-induced cleavage at the primary site: FIG. 1c
Text: The first model oligonucleotide was a 18mer chimeric duplex (18C-18R). 18C-18R mimics a RNase H substrate during minus-strand strong-stop synthesis. (FIG. 1a). Mueller, U. et al. Crystal structure of an eight-base pair duplex containing the 3′-DNA RNA-5′ junction formed during initiation of minus-strand synthesis of HIV replication, Biochemistry 37,12005-12011 (1998). […] Note that RT cleaves the RNA strand (18R) opposite the chimeric RNA-DNA strand (18C) at three sites (FIGS. 1a, b). The primary cleavage site lies between base positions +1 and +2 (counting from the RNA-DNA junction in the 5′ direction on the cleaved RNA strand). Two other minor cleavage sites lie between positions +3 and +4 and between positions −1 and +1, with the former site being cleaved to a greater extent than the latter site. Götte, M. et al., HIV-1 Reverse transcriptase-associated RNase H cleaves RNA/RNA in arrested complexes: Implications for the mechanism by which RNase H discriminates between RNA/RNA and RNA/DNA, EMBO J. 14, 833-841 (1995).
Recombinant HIV-1 RT p66 was isolated from Escherichia coli JM 109. Pandey, V. N. et al, Role of methionine 184 of human immunodeficiency virus type-1 reverse transcriptase in the polymerase function and fidelity of DNA synthesis, Biochemistry 35, 2168-2179 (1996). The 18C and 18R oligonucleotides were purchased from Dharmacon Research, Inc. (Lafayette, Colo.). The 18D oligonucleotide was obtained from Integrated DNA Technologies, Inc. (Coralville, Iowa). Neomycin trisulfate trihydrate, the free base of tobramycin, paromomycin sulfate, and kanamycin B sulfate were obtained from Fluka, while kanamycin A monosulfate and ribostamycin sulfate dihydrate were obtained from Sigma.
The RNase H activity of RT was assayed in a 10 μl reaction mixture containing 10 mM PIPES (pH 6.0) and 5 mM MgCl2. Ten pmol of either 18C or 18R were ^32P-labeled at the 5′ end using T4 polynucleotide kinase. For the cleavage experiments, different aminoglycosides were mixed with 0.5 μM of target duplex. A small amount of RT, 0.1 μg, was then added to initiate the cleavage reaction. After incubation at 37° C. for 30 min, the reaction was stopped by addition of 3 M urea containing a mixture of bromophenol blue and xylene cyanol. Denaturation of the 18C-18R duplex required the addition of 5 M urea as well as heating at 95° C. for 5 min prior to gel loading. The cleavage products were resolved in a 10% polyacrylamide gel containing 8 M urea. The gels were subsequently analyzed using a phosphoimager (Molecular Dynamics, Inc.).

[2] = system: 18C-18D duplex; assay: UV melting (thermal denaturation) and ΔTm analysis, 18C-18D duplex; format: binding, HIV-1; settings: for Ka (ΔTm-derived association constant): extrapolated to 25° C.; for enhancement of thermal stability of the duplex (ΔTm): 18C-18D, drug to duplex ratio (rdup) 3.0, FIG. 3b
Method: All UV absorbance experiments were conducted on an AVIV Model 14DS Spectrophotometer (Aviv Associates; Lakewood, N.J.) equipped with a thermoelectrically controlled cell holder. A quartz cell with a 1 cm pathlength was used for all the absorbance studies. Absorbance versus temperature profiles were measured at 274 nm with a 6 sec averaging time. The temperature was raised in 0.5° C. increments, and the samples were allowed to equilibrate for 1 min at each temperature setting. In these thermal denaturation studies, 18C-18R and 18C-18D solutions were […] in duplex and contained aminoglycoside at concentrations ranging from 0 to 12 μM. The duplex solutions were preheated for 5 min at 85° C. and then cooled to room temperature prior to addition of the drug. The buffer solutions for the UV melting experiments contained 10 mM PIPES (pH 6.0) and 5 mM MgCl2. For each optically detected transition, the melting temperature (Tm) was determined. Marky, L. A. & Breslauer, K. J. Calculating thermodynamic data for transitions of any molecularity from equilibrium melting curves, Biopolymers 26, 1601-1620 (1987).
The ΔTm method described below was used to derive aminoglycoside-duplex association constants (Ka). Measured aminoglycoside-induced changes in the thermal stability of the host duplexes (FIG. 3) were used to estimate the apparent drug-duplex association constants at Tm (KTm) from the following expression (Crothers, D. M. Statistical thermodynamics of nucleic acid melting transitions with coupled binding equilibria, Biopolymers 10, 2147-2160 (1971)): [formula]
In this expression, TmO and Tm are the melting temperatures of the drug-free and drug-bound duplex, respectively, n is the number of drug molecules bound per duplex, ΔHdup is the enthalpy change for the melting of the duplex in the absence of bound drug, and L is the free drug concentration at Tm (which can be estimated by one half the total drug concentration). Values of ΔHdup for the 18C-18R and 18C-18D duplexes were determined from the shapes of their UV melting profiles using the following relationship (Marky, L. A. & Breslauer, K. J. Calculating thermodynamic data for transitions of any molecularity from equilibrium melting curves, Biopolymers 26, 1601-1620 (1987)): [formula]
where α is the fraction of single strand. This calculation yielded ΔHdup values of 157.8 kcal/mol for the 18C-18R duplex and 130.3 kcal/mol for the 18C-18D duplex. For meaningful comparisons, the calculated apparent binding constants at Tm should be extrapolated to a common reference temperature using the standard relationship: [formula]
where ΔHb is the enthalpy of drug binding.

[3] = system: HIV-1; settings: chronically infected cells; Zapp et al., Cell 74 (1993); cited from earlier work

Row | Compound | hierarchy of the extent of inhibition of RT-induced cleavage [1] | Ka (ΔTm-derived association constant) ([2]; 18C-18D duplex) | enhancement of thermal stability of the duplex (ΔTm) [2] [°C] | inhibition of RT-induced cleavage at the primary site ([1]; neomycin to binding site ratio of 1 (stoichiometric concentration)) [%] | inhibition of RT-induced cleavage at the primary site ([1]; neomycin to binding site ratio of 5) | difference in affinity, neomycin greater than paromomycin ([2]; 18C-18D duplex) [fold] | inhibition of HIV-1 production [3]
1 | NC[C@@H]1O[C@H](O[C@H]2[C@@H](O)[C@H](O[C@@H]3[C@@H](O)[C@H](N)C[C@H](N)[C@H]3O[C@H]3O[C@H](CO)[C@@H](O)[C@H](O)[C@H]3N)O[C@@H]2CO)[C@H](N)[C@@H](O)[C@@H]1O [paromomycin, paromomycin sulfate] | neomycin>paromomycin>tobramycin>kanamycin B>ribostamycin>>kanamycin A | (1.9 ± 0.8) × 10^5 M^−1 | 1.1 | – | – | – | –
2 | Neomycin trisulfate trihydrate | neomycin>paromomycin>tobramycin>kanamycin B>ribostamycin>>kanamycin A | (1.7 ± 0.3) × 10^6 M^−1 | 4.1 | 80 | total inhibition | 9 | inhibit HIV-1 production in chronically infected cells
